Reference: patent US8263762B2, “Alkoxy-carbonyl-amino-alkynyl-adenosine compounds and derivatives thereof as A2AR agonists” (Dogwood Pharmaceuticals, Inc., priority 2009, dated 2012)

Key:
[1] = test system: human neutrophils; assay: Neutrophil oxidative activity (luminol enhanced chemiluminescence); format: cell-based; details: oxidative activity assay, purified human neutrophils, fMLP-stimulated chemiluminescence, read-out: Functional Activity
From the text: Chemiluminescence Methods: Luminol enhanced chemiluminescence, a measure of neutrophil oxidative activity, is dependent upon both superoxide production and mobilization of the granule enzyme myeloperoxidase. The light is emitted from unstable high-energy oxygen species such as hypochlorous acid and singlet oxygen generated by activated neutrophils.
Purified human neutrophils (2×10^6/ml) suspended in Hanks balanced salt solution containing 0.1% human serum albumin (HA), adenosine deaminase (1 U/mL) and rolipram (100 nM) were incubated (37 C) in a water bath for 15 min with or without rhTNF (10 U/ml). Following incubation 100 µL aliquots of the PMN were transferred to wells (White walled clear bottom 96 well tissue culture plates Costar #3670; 2 wells/condition) containing […] and luminol (final concentration […]) with or without adenosine agonist (final agonist concentrations 0.01-1000 nM). The plate was incubated 5 min (37 C) and then fMLP (50 l in HA; final concentration […]) was added to all wells.
Peak chemiluminescence was determined with a Victor 1420 Multilabel Counter in the chemiluminescence mode using the Wallac Workstation software. Data are presented as peak chemiluminescence as percent of activity in the absence of an adenosine agonist. The EC50 was determined using PRISM software. All compounds were tested with PMNs from three separate donors.
Effect of A2A Agonists on Neutrophil Oxidative Activity: f-met-leu-phe (fMLP), luminol, superoxide dismutase, cytochrome C, fibrinogen, adenosine deaminase, and trypan blue were obtained from Sigma Chemical. Ficoll-hypaque was purchased from ICN (Aurora, Ohio), and Cardinal Scientific (Santa Fe, N. Mex.) and Accurate Chemicals and Scientific (Westerbury, N.Y.). Endotoxin (lipopolysaccharide; E. coli K235) was from List Biologicals (Campbell, Calif.). Hanks balanced salt solution (HBSS), and limulus amebocyte lysate assay kit were from BioWittaker (Walkersville, Md.). Human serum albumin (HSA) was from Cutter Biological (Elkhart, Ind.). Recombinant human tumor necrosis factor-α was supplied by Dianippon Pharmaceutical Co. Ltd. (Osaka, Japan). ZM241385 (4-(2-[7-amino-2-(2-furyl)[1,2,4]triazolo[2,3-a][1,3,5]triazin-5-yl amino]ethyl)phenol) was a gift from Simon Poucher, Zeneca Pharmaceuticals, Cheshire, UK. Stock solutions (1 mM and 10 mM in DMSO) were made and stored at −20° C.
Human neutrophil preparation: Purified neutrophils (98% neutrophils and >95% viable by trypan blue exclusion) containing <1 platelet per 5 neutrophils and <50 pg/ml endotoxin (limulus amebocyte lysate assay) were obtained from normal heparinized (10 U/ml) venous blood by a one step Ficoll-hypaque separation procedure (A. Ferrante et al., J. Immunol. Meth., 36, 109 (1980)). […]

[2] = target: T1, recombinant human A2A receptors (Homo sapiens, UniProt P29274); assay: Radioligand binding assay, A2A receptor; details: recombinant human A2A receptors in Sf9 cell membranes; competition binding
T1 construct: made in house; host or cells: Sf9 insect cells, viral (baculovirus) infection; membranes
Description: Cell culture and membrane preparation. Sf9 cells were cultured in Grace's medium supplemented with 10% fetal bovine serum, 2.5 μg/ml amphotericin B and 50 μg/ml gentamycin in an atmosphere of 50% N2/50% O2. Viral infection was performed at a density of 2.5×10^6 cells/mL with a multiplicity of infection of two for each virus used. Infected cells were harvested 3 days post-infection and washed twice in insect PBS (PBS pH 6.3). Cells were then resuspended in lysis buffer (20 mM HEPES pH 7.5, 150 mM NaCl, 3 mM MgCl2, 1 mM β-mercaptoethanol (BME), 5 μg/mL leupeptin, 5 μg/mL pepstatin A, 1 μg/mL aprotinin, and 0.1 mM PMSF) and snap frozen for storage at −80° C. Cells were thawed on ice, brought to 30 mL total volume in lysis buffer, and burst by N2 cavitation (600 psi for 20 minutes). A low-speed centrifugation was performed to remove any unlysed cells (1000×g for 10 minutes), followed by a high-speed centrifugation (17,000×g for 30 minutes). The pellet from the final centrifugation was homogenized in buffer containing 20 mM HEPES pH 8, 100 mM NaCl, 1% glycerol, 2 μg/mL leupeptin, 2 μg/mL pepstatin A, 2 μg/mL Aprotinin, 0.1 mM PMSF, and 10 μM GDP using a small glass homogenizer followed by passage through a 26 gauge needle. Membranes were aliquoted, snap frozen in liquid N2, and stored at −80° C. Membranes from cells stably expressing the human A1 AR(CHO K1 cells) or A3 AR (HEK 293 cells) were prepared as described (Robeva et al., 1996).
Radioligand Binding Assays. Radioligand binding to recombinant human A2A receptors in Sf9 cell membranes was performed using either the radiolabeled agonist, ^125I-APE (Luthin et al., 1995) or the radiolabeled antagonist, ^125I-ZM241385 (^125I-ZM). To detect the high affinity, GTPγS-sensitive state of A1 and A3 AR, we used the agonist, ^125I-ABA (Linden et al., 1985; Linden et al., 1993). Binding experiments were performed in triplicate with 5 μg (A2A) or 25 μg (A1 and A3) membrane protein in a total volume of 0.1 mL HE buffer (20 mM HEPES and 1 mM EDTA) withl U/mL adenosine deaminase and 5 mM MgCl2 with or without 50 μM GTPγS. Membranes were incubated with radioligands at room temperature for three hours (for agonists) or two hours (for antagonists) in Millipore Multiscreen® 96-well GF/C filter plates and assays were terminated by rapid filtration on a cell harvester (Brandel, Gaithersburg, Md.) followed by 4×150 μL washes over 30 seconds with ice cold 10 mM Tris-HCl, pH 7.4, 10 mM MgCl2. Nonspecific binding was measured in the presence of 50 μM NECA. Competition binding assays were performed as described (Robeva et al., 1996) using 0.5-1 nM ^125I-APE, ^125I-ZM241385, or ^125I-ABA. Sometimes it is important to change pipette tips following each serial dilution to prevent transfer on tips of potent hydrophobic compounds. The Ki values for competing compound binding to a single site were derived from IC50 values with correction for radioligand and competing compound depletion as described previously (Linden, 1982). • Linden J (1982) Calculating the Dissociation Constant of an Unlabeled Compound From the Concentration Required to Displace Radiolabel Binding by 50%. J Cycl Nucl Res 8: 163-172. • Linden J, Patel A and Sadek S (1985) [^125I]Aminobenzyladenosine, a New Radioligand With Improved Specific Binding to Adenosine Receptors in Heart. Circ Res 56: 279-284. • Linden J, Taylor H E, Robeva A S, Tucker A L, Stehle J H, Rivkees S A, Fink J S and Reppert S M (1993) Molecular Cloning and Functional Expression of a Sheep A3 Adenosine Receptor with Widespread Tissue Distribution. Mol Pharmacol 44: 524-532. • Luthin D R, Olsson R A, Thompson R D, Sawmiller D R and Linden J (1995) Characterization of Two Affinity States of Adenosine A2A Receptors With a New Radioligand, 2-[2-(4-Amino-3-[^125I]Iodophenyl)Ethylamino] Adenosine. Mol Pharmacol 47: 307-313. • Robeva A S, Woodard R, Luthin D R, Taylor H E and Linden J (1996) Double Tagging Recombinant A1- and A2A-Adenosine Receptors With Hexahistidine and the FLAG Epitope. […]

T1 sequence (P29274 whole entry): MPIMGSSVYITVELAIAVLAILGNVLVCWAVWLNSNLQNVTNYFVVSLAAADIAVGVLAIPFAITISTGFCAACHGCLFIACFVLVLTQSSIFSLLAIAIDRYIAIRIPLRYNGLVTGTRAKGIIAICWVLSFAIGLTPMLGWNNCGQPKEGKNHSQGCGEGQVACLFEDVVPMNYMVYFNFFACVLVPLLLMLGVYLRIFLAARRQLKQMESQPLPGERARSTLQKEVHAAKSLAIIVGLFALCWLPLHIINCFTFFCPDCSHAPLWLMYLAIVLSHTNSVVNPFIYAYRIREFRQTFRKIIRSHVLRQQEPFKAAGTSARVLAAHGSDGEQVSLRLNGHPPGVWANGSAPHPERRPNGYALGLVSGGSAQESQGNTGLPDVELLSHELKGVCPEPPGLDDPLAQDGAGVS

EC50 [1]	Ki [2]	Structure (SMILES)
< 10 nM	< 10 nM	COC(=O)N(CC#Cc1nc(N)c2ncn([C@@H]3O[C@H](C(=O)NC4CC4)C(O)C3O)c2n1)C(C)C (some centres unmarked) [Example 8, N-Cyclopropyl 2-{3-[4-(isopropyl(methoxycarbonyl)amino)]propyn-1-yl}adenosine-5′-uronamide]
< 10 nM	< 10 nM	COC(=O)N(CC#Cc1nc(N)c2ncn([C@@H]3O[C@H](C(=O)NC4CC4)C(O)C3O)c2n1)C1CCCC1 (some centres unmarked) [Example 14, N-Cyclopropyl 2-{3-[4-(cyclopentyl(methoxycarbonyl)amino)]propyn-1-yl}adenosine-5′-uronamide]
< 10 nM	< 10 nM	COCCN(CC#Cc1nc(N)c2ncn([C@@H]3O[C@H](C(=O)NC4CC4)C(O)C3O)c2n1)C(=O)OC (some centres unmarked) [Example 15, N-Cyclopropyl 2-{3-[4-(methoxycarbonyl(2-methoxyethyl)amino)]propyn-1-yl}adenosine-5′-uronamide]
< 10 nM	< 10 nM	COC(=O)N(CC#Cc1nc(N)c2ncn([C@@H]3O[C@H](C(=O)NC4CC4)C(O)C3O)c2n1)CC(C)C (some centres unmarked) [Example 9, N-Cyclopropyl 2-{3-[4-(isobutyl(methoxycarbonyl)amino)]propyn-1-yl}adenosine-5′-uronamide]
> 100 nM	11 to 100 nM	CCOCCCN(CC#Cc1nc(N)c2ncn([C@@H]3O[C@H](C(=O)NC4CC4)C(O)C3O)c2n1)C(=O)OC (some centres unmarked) [Example 17, N-Cyclopropyl 2-{3-[4-((3-ethoxypropyl)(methoxycarbonyl)amino)]propyn-1-yl}adenosine-5′-uronamide]
< 10 nM	< 10 nM	CCCN(CC#Cc1nc(N)c2ncn([C@@H]3O[C@H](C(=O)NC4CC4)C(O)C3O)c2n1)C(=O)OC (some centres unmarked) [Example 7, N-Cyclopropyl 2-{3-[4-(methoxycarbonyl(propyl)amino)]propyn-1-yl}adenosine-5′-uronamide]
< 10 nM	< 10 nM	COC(=O)N(C)CC#Cc1nc(N)c2ncn([C@@H]3O[C@H](C(=O)NC4CC4)C(O)C3O)c2n1 (some centres unmarked) [Example 1, N-Cyclopropyl 2-{3-[methoxycarbonyl(methyl)amino]propyn-1-yl}adenosine-5′-uronamide]
< 10 nM	11 to 100 nM	COC(=O)N(CC#Cc1nc(N)c2ncn([C@@H]3O[C@H](C(=O)NC4CC4)C(O)C3O)c2n1)C1CCC1 (some centres unmarked) [Example 13, N-Cyclopropyl 2-{3-[4-(cyclobutyl(methoxycarbonyl)amino)]propyn-1-yl}adenosine-5′-uronamide]
< 10 nM	< 10 nM	CCN(CC#Cc1nc(N)c2ncn([C@@H]3O[C@H](C(=O)NC4CC4)C(O)C3O)c2n1)C(=O)OC (some centres unmarked) [Example 6, N-Cyclopropyl 2-{3-[4-(ethyl(methoxycarbonyl)amino)]propyn-1-yl}adenosine-5′-uronamide]
> 100 nM	11 to 100 nM	COC(=O)N(CC#Cc1nc(N)c2ncn([C@@H]3O[C@H](C(=O)NC4CC4)C(O)C3O)c2n1)Cc1ccccc1 (some centres unmarked) [Example 10, N-Cyclopropyl 2-{3-[4-(benzyl(methoxycarbonyl)amino)]propyn-1-yl}adenosine-5′-uronamide]
< 10 nM	< 10 nM	COC(=O)N(CC#Cc1nc(N)c2ncn([C@@H]3O[C@H](C(=O)NC4CC4)C(O)C3O)c2n1)C1CC1 (some centres unmarked) [Example 11, N-Cyclopropyl 2-{3-[4-(cyclopropyl(methoxycarbonyl)amino)]propyn-1-yl}adenosine-5′-uronamide]
< 10 nM	< 10 nM	COC(=O)N(CC#Cc1nc(N)c2ncn([C@@H]3O[C@H](C(=O)NC4CC4)C(O)C3O)c2n1)CC1CC1 (some centres unmarked) [Example 12, N-Cyclopropyl 2-{3-[4-(cyclopropylmethyl(methoxycarbonyl)amino)]propyn-1-yl}adenosine-5′-uronamide]
< 10 nM	11 to 100 nM	COCCCN(CC#Cc1nc(N)c2ncn([C@@H]3O[C@H](C(=O)NC4CC4)C(O)C3O)c2n1)C(=O)OC (some centres unmarked) [Example 16, N-Cyclopropyl 2-{3-[4-(methoxycarbonyl(3-methoxypropyl)amino)]propyn-1-yl}adenosine-5′-uronamide]
< 10 nM	< 10 nM	CN(CC#Cc1nc(N)c2ncn([C@@H]3O[C@H](C(=O)NC4CC4)C(O)C3O)c2n1)C(=O)OCCOCc1ccccc1 (some centres unmarked) [Example 3, N-Cyclopropyl 2-{3-[2-((benzyloxy)ethoxycarbonyl)(methyl)amino]propyn-1-yl}adenosine-5′-uronamide]

Structure (SMILES)	EC50 [1]	Ki [2]
CN(CC#Cc1nc(N)c2ncn([C@@H]3O[C@H](C(=O)NC4CC4)C(O)C3O)c2n1)C(=O)Oc1ccccc1 (some centres unmarked) [Example 2, N-Cyclopropyl 2-{3-[phenoxycarbonyl(methyl)amino]propyn-1-yl}adenosine-5′-uronamide]	< 10 nM	< 10 nM
CN(CC#Cc1nc(N)c2ncn([C@@H]3O[C@H](C(=O)NC4CC4)C(O)C3O)c2n1)C(=O)Oc1ccc(F)cc1 (some centres unmarked) [Example 4, N-Cyclopropyl 2-{3-[4-fluorophenoxycarbonyl(methyl)amino]propyn-1-yl}adenosine-5′-uronamide]	< 10 nM	11 to 100 nM
